Test results from US8420049B2 (priority 2002, dated 2013).

Tests used:
[1] = Effect of dipyridamole treatment on uptake and distribution of [^11C] AMP in mice; format: in vivo, mouse; settings: 30 mg/kg dipyridamole ip 60 minutes before [^11C] AMP
Procedure: The effect of dipyridamole treatment on the uptake and distribution of [^11C] AMP, nine mice were given a 30 mg/kg dose of dipyridamole ip 60 minutes prior to administration of the radiotracer was determined. Three mice each were sacrificed 5, 30, and 60 minutes after injection of 23.8 MBq (642 μCi, 8.7 μg/kg) of [^11C] AMP. All tissue samples were handled as described above.

[2] = In vitro metabolism of [^11C] AMP in human whole blood or plasma; format: in vitro ADME
Procedure: Human plasma was prepared from heparinized blood of a healthy volunteer. 50 μL of [^11C] AMP (39.96-70.82 GBq/μmol, 1080-1914 mCi/μmol) was added to 1 mL of plasma or heparinized whole blood at 37° C. In one series of studies, dipyridamole was added to give a concentration of 500 μM in whole blood. One hundred μL samples, which were removed from the incubation mixture at 0, 2, 5, 10, 20, and 30 minutes, were added to 350 μL of water at 0° C. and acidified with 50 μL of 5N perchloric acid. After standing for 5 minutes on ice, the protein precipitate was removed by centrifugation at 13,000×g for 1 minute in a microcentrifuge. The acid soluble supernatant was analyzed by HPLC. Chromatographic separation of the labeled adenosine phosphate esters used a Phenomenex Synergi Polar RP column (4.6×250 mm, 10 micron particle size) eluted with 0.1N perchloric acid at 2 mL/min. Radioactivity was detected by a dual BGO flow detector (Bioscan Inc., Washington D.C.). Optical detection was at 254 nm. Data from both detectors was collected and analyzed by Laura software (Bioscan Inc., Washington D.C.).

[3] = Ex vivo distribution of [^11C] AMP in mice; set-up: species or system mouse; settings: CD-1 mice, mean ± SD (n = 3)
Procedure: Non-fasted, male CD-1 mice (25 g) were injected via the tail vein with 15.5 MBq (418 μCi, 2.57 μg/kg) of [^11C] AMP. Three mice each were sacrificed by cervical dislocation at 5, 30, and 60 minutes after injection. The lungs, heart, kidneys, liver, spleen, intestine, stomach, and brain were quickly removed and put on ice. One femur and samples of thigh muscle and blood were also collected. The organs were weighed, and the tissue radioactivity measured with an automated gamma counter (LKB Wallac 1282 Compugamma CS Universal Gamma Counter). The percent injected dose per gram of tissue (% ID/g) was calculated by comparison with samples of a standard dilution of the initial dose. All measurements were corrected for decay.

OCCN(CCO)c1nc(N2CCCCC2)c2nc(N(CCO)CCO)nc(N3CCCCC3)c2n1 [dipyridamole]
effect on amount of tracer in the blood [1]: did not affect | effect on uptake of [^11C] radiotracer in the lungs ([1]; 60 minutes after injection): significantly decreased

Nc1n[11cH]nc2c1ncn2[C@@H]1O[C@H](COP(=O)(O)O)[C@@H](O)[C@H]1O [[^11C] AMP, [^11C] Adenosine 5′-Monophosphate]
conversion of the tracer to adenosine ([2]; dipyridamole (500 μM) treated whole human blood, after 5 minutes): > 60% | conversion to ATP ([2]; whole human blood, 37° C., after 10 minutes): > 60% | Ex vivo mouse biodistribution ([3]; Blood, 5 minutes after iv injection): 27.94 ± 8.21 % ID/g | Ex vivo mouse biodistribution ([3]; Blood, 30 minutes after iv injection): 27.34 ± 0.41 % ID/g | Ex vivo mouse biodistribution ([3]; Blood, 60 minutes after iv injection): 24.34 ± 4.13 % ID/g | Ex vivo mouse biodistribution ([3]; Bone, 5 minutes after iv injection): 2.35 ± 0.68 % ID/g | Ex vivo mouse biodistribution ([3]; Bone, 30 minutes after iv injection): 2.57 ± 0.34 % ID/g | Ex vivo mouse biodistribution ([3]; Bone, 60 minutes after iv injection): 3.21 ± 0.48 % ID/g | Ex vivo mouse biodistribution ([3]; Brain, 5 minutes after iv injection): 0.78 ± 0.18 % ID/g | Ex vivo mouse biodistribution ([3]; Brain, 30 minutes after iv injection): 1.06 ± 0.19 % ID/g | Ex vivo mouse biodistribution ([3]; Brain, 60 minutes after iv injection): 0.80 ± 0.26 % ID/g | Ex vivo mouse biodistribution ([3]; Heart, 5 minutes after iv injection): 20.09 ± 3.24 % ID/g | Ex vivo mouse biodistribution ([3]; Heart, 30 minutes after iv injection): 18.07 ± 5.19 % ID/g | Ex vivo mouse biodistribution ([3]; Heart, 60 minutes after iv injection): 20.47 ± 2.87 % ID/g | Ex vivo mouse biodistribution ([3]; Intestine, 5 minutes after iv injection): 1.74 ± 0.41 % ID/g | Ex vivo mouse biodistribution ([3]; Intestine, 30 minutes after iv injection): 1.80 ± 0.50 % ID/g | Ex vivo mouse biodistribution ([3]; Intestine, 60 minutes after iv injection): 2.17 ± 1.06 % ID/g | Ex vivo mouse biodistribution ([3]; Kidneys, 5 minutes after iv injection): 8.88 ± 3.82 % ID/g | Ex vivo mouse biodistribution ([3]; Kidneys, 30 minutes after iv injection): 9.31 ± 2.88 % ID/g | Ex vivo mouse biodistribution ([3]; Kidneys, 60 minutes after iv injection): 6.80 ± 4.10 % ID/g | Ex vivo mouse biodistribution ([3]; Liver, 5 minutes after iv injection): 7.56 ± 3.98 % ID/g | Ex vivo mouse biodistribution ([3]; Liver, 30 minutes after iv injection): 2.99 ± 0.10 % ID/g | Ex vivo mouse biodistribution ([3]; Liver, 60 minutes after iv injection): 3.53 ± 0.55 % ID/g | Ex vivo mouse biodistribution ([3]; Lungs, 5 minutes after iv injection): 32.37 ± 4.52 % ID/g | Ex vivo mouse biodistribution ([3]; Lungs, 30 minutes after iv injection): 29.52 ± 5.42 % ID/g | Ex vivo mouse biodistribution ([3]; Lungs, 60 minutes after iv injection): 38.48 ± 3.63 % ID/g | Ex vivo mouse biodistribution ([3]; Muscle, 5 minutes after iv injection): 2.14 ± 0.61 % ID/g | Ex vivo mouse biodistribution ([3]; Muscle, 30 minutes after iv injection): 3.67 ± 0.54 % ID/g | Ex vivo mouse biodistribution ([3]; Muscle, 60 minutes after iv injection): 3.63 ± 1.04 % ID/g | Ex vivo mouse biodistribution ([3]; Spleen, 5 minutes after iv injection): 2.96 ± 1.49 % ID/g | Ex vivo mouse biodistribution ([3]; Spleen, 30 minutes after iv injection): 4.75 ± 0.67 % ID/g | Ex vivo mouse biodistribution ([3]; Spleen, 60 minutes after iv injection): 4.71 ± 1.06 % ID/g | Ex vivo mouse biodistribution ([3]; Stomach, 5 minutes after iv injection): 1.98 ± 0.36 % ID/g | Ex vivo mouse biodistribution ([3]; Stomach, 30 minutes after iv injection): 1.12 ± 0.25 % ID/g | Ex vivo mouse biodistribution ([3]; Stomach, 60 minutes after iv injection): 2.10 ± 0.98 % ID/g
